Test results: patent publication US11945824B2, “Heterocyclic compounds as anti-viral agents” (priority 2020, dated 2024)

Columns and labels:
[1] = test system: Human RSV-A (“Long” strain); assay: RSV-A assay (CPE, ATPlite readout in Hep-2 cells); format: cell-based; details: human respiratory syncytial virus, 120 h; Hep-2 cells, MOI 0.1, 5-day incubation, ATPlite; read-out: Human RSV-A (“Long” strain) EC50
Description: Hep-2 cells, (originally derived from tumors grown in irradiated-cortisonised weanling rats that had been injected with epidermoid carcinoma tissue from a person's larynx, but later found to be indistinguishable from HeLa cells by PCR DNA analysis), were used for the culturing of genotype A, “Long” strain RSV. Flasks were inoculated with RSV and viral stocks were collected once cytopathic effect (CPE) was greater than 90%. Viral stocks in 25% sucrose media were snap frozen using liquid nitrogen to increase viral stability. Viral stock titers were quantified by tissue culture infectious dose 50% (TCID50) using 8,000 cells per well and 3-fold viral dilutions across a 96-well plate, cultured for 4 days. Viral stock titers were also quantified by a plaque forming unit assay, as described elsewhere.
Following extensive parameter testing, the final assay is run as follows: Hep-2 cells are seeded into the inner 60 wells of a 96-well plate at 8,000 cells per well in a volume of 50 μL using Growth Media (DMEM without phenol red, 1% L-Glut, 1% Penn/Strep, 1% nonessential amino acids, 10% heat-inactivated FBS). 2-fold serial dilutions of control and test compounds are added to the wells in duplicate in a total volume of 25 μL. Viral stock is then added to the wells at a multiplicity of infection (MOI) of 0.1 in a volume of 25 μL, bringing the total volume of each well to 100 μL. The MOI is calculated using the PFU/mL, or TCID50 if unavailable. Each 96-well plate has a control column of 6 wells with cells and virus but no compound (negative control, max CPE), a column with cells but no compound or virus (positive control, minimum CPE), and a column with no cells or virus or compound (background plate/reagent control). The control wells with cells but no virus are given an additional 25 μL of growth media containing an equal quantity of sucrose as those wells receiving the viral stock in order to keep consistent in media and volume conditions. The outer wells of the plate are filled with 125 μL of moat media (DMEM, 1% Penn/Strep) to act as a thermal and evaporative moat around the test wells. Following a 5-day incubation period, the plates are read using ATPlite (50 uL added per well), which quantifies the amount of ATP (a measure of cell health) present in each well. Assay plates are read using the Envision luminometer. […] EC50 ranges are as follows: A<0.2 μM; B≥0.2 μM.

[2] = test system: rHMPV-GFP (recombinant HMPV CAN97-83, MPV-GFP1); assay: HMPV antiviral assay (eGFP fluorescence in Vero E6 cells); format: cell-based; details: human metapneumovirus, Vero C1008, 120 h, read-out: rHMPV-GFP EC50
Procedure: Method for HMPV Antiviral Assay
HMPV antiviral activity was evaluated using a recombinant version of HMPV CAN97-83 engineered to contain the coding sequence for enhanced green fluorescence protein (eGFP) in the 3′ end of the virus genome (MPV-GFP1, ViraTree). Vero E6 cells (ATCC #CCL-7) were seeded at a density of 12,000 cells/100 μL/well into 96-well cell plates (VENDOR) one day prior to the assay. On the day of screening, the cell culture medium was aspirated from the wells and cells were washed twice with serum-free Eagle's Modified Essential Medium (EMEM, ATCC #) containing 1% penicillin-streptomycin (Invitrogen) (SF-EMEM). Cell washes were performed by dispensing 100 μL SF-EMEM per well and immediately aspirating the wash medium from the well. Following the second wash step, serum-free OptiMEM (Invitrogen, Cat No.) (SF-OptiMEM) containing 0.5 μg/mL TPCK-Trypsin (VENDOR) and 1% penicillin-streptomycin was added to the cells at 50 μL/well. Compounds were added into the 96-well plates using a JANUS automated liquid handling system (VENDOR). Compounds were initially diluted 1:50 into an intermediate 96-well plate containing SF-OptiMEM prior to transfer to the assay plate (25 μL/well). Each of the test compounds were tested in duplicate wells at final concentrations starting from 8 μM or 2 μM using ½ stepwise dilutions for a total of 8 points. Virus infection was performed by preparing a working stock of MPV-GFP1 at a multiplicity of infection (MOI) equal to 0.05/25 μL and aliquoting 25 μL of virus inoculum to the compound and positive control wells. SF-OptiMEM was added (25 μL/well) to the appropriate wells to serve as a virus-free negative control for the assay. The final DMSO concentration of all wells is 0.5%. Plates were incubated at 32° C., 5% CO2 for 5 days. After 5 days incubation, eGFP fluorescence intensity was measured at […] using a Spectramax i3X plate reader (VENDOR).
Percent viral inhibition was calculated using the following equation: y=[[…](XQ/XP)]×100 Where XQ is the fluorescence intensity measured in a well containing recombinant MPV-GFP1-infected, compound-treated cells and XP is the average fluorescence intensity measured in the wells containing untreated cells infected with recombinant virus. EC50 values were then calculated by non-linear regression using a four-parameter curve logistic equation. The curve fit model employed was XLFit Dose Response One Site Model 200: y=(A+(B/(1+((x/C)^D)))) Where A is the minimum y value, B is the maximum y value, C is the log EC50 value, and D is the slope factor. The EC50 for each compound is listed in Table 2 and EC50 ranges are as follows: A<0.2 μM; B≥0.2 μM.

| SMILES | EC50 [1] | EC50 [2] |
| --- | --- | --- |
| COc1cc(C(=O)NC[C@](O)(c2cc3c(c(-c4ccc(F)cc4)n2)OC[C@]3(C)n2cnnc2)C2CC2)cc2cccnc12 [Example 16, N-((S)-2-cyclopropyl-2-((R)-7-(4-fluorophenyl)-3-methyl-3-(4H-1,2,4-triazol-4-yl)-2,3-dihydrofuro[2,3-c]pyridin-5-yl)-2-hydroxyethyl)-8-methoxyquinoline-6-carboxamide] | < 0.2 µM | > 0.2 µM |
| COc1cc(C(=O)NC[C@](O)(c2cc3c(c(-c4ccc(F)cc4)n2)OC[C@]3(C)n2ccnn2)C2CC2)ccc1OC1CC1 [Example 17, 4-cyclopropoxy-N-((S)-2-cyclopropyl-2-((R)-7-(4-fluorophenyl)-3-methyl-3-(1H-1,2,3-triazol-1-yl)-2,3-dihydrofuro[2,3-c]pyridin-5-yl)-2-hydroxyethyl)-3-methoxybenzamide] | < 0.2 µM | < 0.2 µM |
| COc1cc(C(=O)NC[C@](O)(c2cc3c(c(-c4ccc(F)cc4)n2)OC[C@]3(C)c2cnn[nH]2)C(F)(F)F)cc2cccnc12 [Example 18, 8-methoxy-N-((S)-3,3,3-trifluoro-2-((S)-7-(4-fluorophenyl)-3-methyl-3-(1H-1,2,3-triazol-5-yl)-2,3-dihydrofuro[2,3-c]pyridin-5-yl)-2-hydroxypropyl)quinoline-6-carboxamide] | < 0.2 µM | > 0.2 µM |
| COc1cc(C(=O)NC[C@](O)(c2cc3c(c(-c4ccc(F)cc4)n2)OC[C@]3(C)c2ncc[nH]2)C(F)(F)F)cc2cccnc12 [Example 20, 8-methoxy-N-((S)-3,3,3-trifluoro-2-((S)-7-(4-fluorophenyl)-3-(1H-imidazol-2-yl)-3-methyl-2,3-dihydrofuro[2,3-c]pyridin-5-yl)-2-hydroxypropyl)quinoline-6-carboxamide] | < 0.2 µM | > 0.2 µM |
| C[C@]1(c2nc3ccccc3[nH]2)COc2c1cc([C@@](O)(CNC(=O)c1cc(OC3CC3)c3ncccc3c1)C(F)(F)F)nc2-c1ccc(F)cc1 [Example 21, N-((S)-2-((S)-3-(1H-benzo[d]imidazol-2-yl)-7-(4-fluorophenyl)-3-methyl-2,3-dihydrofuro[2,3-c]pyridin-5-yl)-3,3,3-trifluoro-2-hydroxypropyl)-8-cyclopropoxyquinoline-6-carboxamide] | < 0.2 µM | > 0.2 µM |
| C[C@]1(c2cc[nH]n2)COc2c1cc([C@@](O)(CNC(=O)c1cc(OC3CC3)c3ncccc3c1)C(F)(F)F)nc2-c1ccc(F)cc1 [Example 22, 8-cyclopropoxy-N-((S)-3,3,3-trifluoro-2-((S)-7-(4-fluorophenyl)-3-methyl-3-(1H-pyrazol-3-yl)-2,3-dihydrofuro[2,3-c]pyridin-5-yl)-2-hydroxypropyl)quinoline-6-carboxamide] | < 0.2 µM | > 0.2 µM |
| COc1cc(C(=O)NC[C@](O)(c2cc3c(c(-c4ccc(F)cc4)n2)OC[C@]3(C)Cc2ncc[nH]2)C(F)(F)F)cc2cccnc12 [Example 23, N-((S)-2-((R)-3-((1H-imidazol-2-yl)methyl)-7-(4-fluorophenyl)-3-methyl-2,3-dihydrofuro[2,3-c]pyridin-5-yl)-3,3,3-trifluoro-2-hydroxypropyl)-8-methoxyquinoline-6-carboxamide] | < 0.2 µM | < 0.2 µM |
